System: A549 (lung cancer)
Test: In vitro cytotoxicity test (MTT) against human tumour cell line A549
Format: cell-based
Conditions: A549, 24 h contact, 48 h re-growth
Description: Human tumour cell lines A549 (lung cancer), HCT-15 (colon cancer) and MCF-7 (breast cancer) have been obtained from the Developmental Therapeutics Program of the National Cancer Institute (Rockville, Md., USA). Cells were routinely grown with RPMI 1640 medium supplemented with 10% foetal calf serum, both obtained from Biochrom AG (Berlin, Germany). They were grown on Petri dishes (Nunc, Denmark) at 37° C. in a humidified atmosphere containing 5% CO2. Cells were replicated every 4 days and the medium changed once in-between.
Cytotoxicity has been evaluated on exponentially growing cells grown for 24 h in presence of the compounds to be tested. Briefly, 4000 cells were seeded in 96-well plates with 200 μL of complete medium; 24 hours later the medium was supplemented with a series of different concentrations of compounds and the contact maintained for 24 h. Compounds were dissolved in pure water and sterilised using polycarbonate membrane filters of 0.22 μm (Millipore, Molsheim, France). The cells were then allowed to re-grow for 48 hours; viable and metabolically active cells were quantitatively estimated by coloration with the MTT dye (1-(4,5-dimethylthyazol-2-yl)-3,5-diphenylformazan), Sigma-Aldrich Chimie, Saint-Quentin-Fallavier, France). The amount of substance allowing a 50% decrease in cell numbers is indicative of the cytotoxicity and represents the IC50 of compound.

CCN1C[C@]2(COC)[C@H](O)C[C@H](OC)[C@]34C1[C@H]([C@H](OC)[C@H]23)[C@]1(OC(=O)CCCCCCC(=O)O[C@]23[C@H]5[C@@H](OC(=O)c6ccccc6)[C@](O)(C[C@H]5[C@@]56C7[C@@H]2[C@H](OC)[C@@H]5[C@](COC)(CN7CC)[C@H](O)C[C@@H]6OC)[C@@H](OC)[C@@H]3O)[C@H]2[C@@H](OC(=O)c3ccccc3)[C@](O)(C[C@H]24)[C@@H](OC)[C@@H]1O [SDD, bis[O-(14-benzoylaconine-8-yl)]-suberate]
IC50: 18.7 µM
